ChEMBL document CHEMBL1149088, “A non-peptide NK1 receptor agonist showing subpicomolar affinity” (J Med Chem, 2004)

Key:
Substance-P receptor [1] = molecular target: T1, Substance-P receptor (Homo sapiens, UniProt P25103); experiment: Binding affinity against human Tachykinin receptor 1 expressed in astrocytoma UC11MG cells using [125I]- SP radioligand; type: cell-based
Substance-P receptor [2] = molecular target: T1, Substance-P receptor; conditions: UC11MG
Substance-P receptor [3] = molecular target: T1, Substance-P receptor; experiment: Inhibition of labeled SP total binding against human Tachykinin receptor 1 expressed in astrocytoma UC11MG cells by the second binding component; type: cell-based
Endothelial cell [4] = experiment: Concentration required to produce cyclic GMP levels in postcapillary endothelial cells isolated from bovine heart (CVEC); type: functional, cell-based; conditions: Bos taurus
Endothelial cell [5] = experiment: Concentration required to produce maximum effect on postcapillary endothelial cells isolated from bovine heart (CVEC) proliferation; type: functional, cell-based; conditions: Bos taurus
Endothelial cell [6] = experiment: Concentration required to produce maximum stimulation in tritiated inositol monophosphate (IP1) level in postcapillary endothelial cells isolated from bovine heart (CVEC); type: functional, cell-based; conditions: Bos taurus

T1 sequence (P25103 whole entry): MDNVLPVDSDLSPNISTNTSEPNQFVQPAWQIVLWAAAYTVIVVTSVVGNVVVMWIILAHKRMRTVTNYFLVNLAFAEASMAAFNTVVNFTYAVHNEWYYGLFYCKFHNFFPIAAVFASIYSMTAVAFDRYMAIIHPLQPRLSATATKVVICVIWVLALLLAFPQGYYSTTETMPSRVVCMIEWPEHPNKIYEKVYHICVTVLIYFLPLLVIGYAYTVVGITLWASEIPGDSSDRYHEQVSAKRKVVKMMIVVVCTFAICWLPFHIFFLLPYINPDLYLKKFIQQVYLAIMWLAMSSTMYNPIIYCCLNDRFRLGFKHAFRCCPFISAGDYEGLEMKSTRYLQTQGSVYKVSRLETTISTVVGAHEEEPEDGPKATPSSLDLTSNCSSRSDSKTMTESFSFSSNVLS

Compound: O=C(NCc1cc(C(F)(F)F)cc(C(F)(F)F)c1)c1c(CCl)nc2ccccc2c1-c1ccccc1
- IC50 (Substance-P receptor [1]): 26 nM
- Binding (Substance-P receptor [2]): 57%

Compound: CN(C)Cc1nc2ccccc2c(-c2ccccc2)c1C(=O)NCc1cc(C(F)(F)F)cc(C(F)(F)F)c1
- IC50 (Substance-P receptor [3]): 11 nM
- IC50 (Substance-P receptor [1]): 0.22 nM
- Binding (Substance-P receptor [2]): 40%

Compound: COCc1nc2ccccc2c(-c2ccccc2)c1C(=O)N(C)Cc1cc(C(F)(F)F)cc(C(F)(F)F)c1
- IC50 (Substance-P receptor [1]): 11 nM
- Binding (Substance-P receptor [2]): 100%

Compound: CN(Cc1cc(C(F)(F)F)cc(C(F)(F)F)c1)C(=O)c1c(CO)nc2ccccc2c1-c1ccccc1
- Binding (Substance-P receptor [2]): 75%

Compound: CN1CCN(Cc2nc3ccccc3c(-c3ccccc3)c2C(=O)NCc2cc(C(F)(F)F)cc(C(F)(F)F)c2)CC1
- IC50 (Substance-P receptor [1]): > 1000 nM

Compound: CN(Cc1cc(C(F)(F)F)cc(C(F)(F)F)c1)C(=O)c1c(CN)nc2ccccc2c1-c1ccccc1
- IC50 (Substance-P receptor [1]): 9 nM
- Binding (Substance-P receptor [2]): 100%

Compound: Cc1nc2ccccc2c(-c2ccccc2)c1C(=O)NCc1cc(C(F)(F)F)cc(C(F)(F)F)c1
- IC50 (Substance-P receptor [3]): 3900 nM
- IC50 (Substance-P receptor [1]): 0.075 nM
- Binding (Substance-P receptor [2]): 78%

Compound: Ic1ccccc1CN[C@@H]1C2CCN(CC2)[C@@H]1C(c1ccccc1)c1ccccc1
- IC50 (Substance-P receptor [1]): 1.6 nM
- Binding (Substance-P receptor [2]): 100%

Compound: CNCc1nc2ccccc2c(-c2ccccc2)c1C(=O)NCc1cc(C(F)(F)F)cc(C(F)(F)F)c1
- IC50 (Substance-P receptor [1]): 0.011 nM
- Binding (Substance-P receptor [2]): 82%

Compound: NCc1nc2ccccc2c(-c2ccccc2)c1C(=O)NCc1cc(C(F)(F)F)cc(C(F)(F)F)c1
- IC50 (Substance-P receptor [1]): 0.0017 nM
- Binding (Substance-P receptor [2]): 100%

Compound: CC(C)(C)[Si](C)(C)OCc1nc2ccccc2c(-c2ccccc2)c1C(=O)NCc1cc(C(F)(F)F)cc(C(F)(F)F)c1
- IC50 (Substance-P receptor [1]): 17 nM
- Binding (Substance-P receptor [2]): 100%

Compound: Cc1nc2ccccc2c(-c2ccccc2)c1C(=O)N(C)Cc1cc(C(F)(F)F)cc(C(F)(F)F)c1
- IC50 (Substance-P receptor [1]): 3.1 nM
- Binding (Substance-P receptor [2]): 73%

Compound: O=C(NCc1cc(C(F)(F)F)cc(C(F)(F)F)c1)c1c(CO)nc2ccccc2c1-c1ccccc1
- Concentration (Endothelial cell [4]): 100 nM
- Concentration (Endothelial cell [5]): 0.1 nM
- Concentration (Endothelial cell [6]): 1000 nM
- IC50 (Substance-P receptor [1]): 0.0001 nM
- Binding (Substance-P receptor [2]): 100%

Compound: CN(Cc1cc(C(F)(F)F)cc(C(F)(F)F)c1)C(=O)c1c(CBr)nc2ccccc2c1-c1ccccc1
- IC50 (Substance-P receptor [1]): 52 nM
- Binding (Substance-P receptor [2]): 100%

Compound: CN(Cc1cc(C(F)(F)F)cc(C(F)(F)F)c1)C(=O)c1cnc2ccccc2c1-c1ccccc1
- IC50 (Substance-P receptor [1]): 0.03 nM
- Binding (Substance-P receptor [2]): 83%

Compound: O=C(NCc1cc(C(F)(F)F)cc(C(F)(F)F)c1)c1c(CBr)nc2ccccc2c1-c1ccccc1
- IC50 (Substance-P receptor [1]): 0.01 nM
- Binding (Substance-P receptor [2]): 71%

Compound: O=C(NCc1cc(C(F)(F)F)cc(C(F)(F)F)c1)c1c(CN2C(=O)c3ccccc3C2=O)nc2ccccc2c1-c1ccccc1
- IC50 (Substance-P receptor [1]): > 1000 nM

Compound: O=C(NCc1cc(C(F)(F)F)cc(C(F)(F)F)c1)c1cnc2ccccc2c1-c1ccccc1
- IC50 (Substance-P receptor [1]): > 1000 nM

Compound: CN(Cc1ccccc1)Cc1nc2ccccc2c(-c2ccccc2)c1C(=O)NCc1cc(C(F)(F)F)cc(C(F)(F)F)c1
- IC50 (Substance-P receptor [1]): 180 nM
- Binding (Substance-P receptor [2]): 71%
